Key:
Progesterone receptor = molecular target: T1, Progesterone receptor (Homo sapiens, UniProt P06401)
T1 sequence (P06401 whole entry): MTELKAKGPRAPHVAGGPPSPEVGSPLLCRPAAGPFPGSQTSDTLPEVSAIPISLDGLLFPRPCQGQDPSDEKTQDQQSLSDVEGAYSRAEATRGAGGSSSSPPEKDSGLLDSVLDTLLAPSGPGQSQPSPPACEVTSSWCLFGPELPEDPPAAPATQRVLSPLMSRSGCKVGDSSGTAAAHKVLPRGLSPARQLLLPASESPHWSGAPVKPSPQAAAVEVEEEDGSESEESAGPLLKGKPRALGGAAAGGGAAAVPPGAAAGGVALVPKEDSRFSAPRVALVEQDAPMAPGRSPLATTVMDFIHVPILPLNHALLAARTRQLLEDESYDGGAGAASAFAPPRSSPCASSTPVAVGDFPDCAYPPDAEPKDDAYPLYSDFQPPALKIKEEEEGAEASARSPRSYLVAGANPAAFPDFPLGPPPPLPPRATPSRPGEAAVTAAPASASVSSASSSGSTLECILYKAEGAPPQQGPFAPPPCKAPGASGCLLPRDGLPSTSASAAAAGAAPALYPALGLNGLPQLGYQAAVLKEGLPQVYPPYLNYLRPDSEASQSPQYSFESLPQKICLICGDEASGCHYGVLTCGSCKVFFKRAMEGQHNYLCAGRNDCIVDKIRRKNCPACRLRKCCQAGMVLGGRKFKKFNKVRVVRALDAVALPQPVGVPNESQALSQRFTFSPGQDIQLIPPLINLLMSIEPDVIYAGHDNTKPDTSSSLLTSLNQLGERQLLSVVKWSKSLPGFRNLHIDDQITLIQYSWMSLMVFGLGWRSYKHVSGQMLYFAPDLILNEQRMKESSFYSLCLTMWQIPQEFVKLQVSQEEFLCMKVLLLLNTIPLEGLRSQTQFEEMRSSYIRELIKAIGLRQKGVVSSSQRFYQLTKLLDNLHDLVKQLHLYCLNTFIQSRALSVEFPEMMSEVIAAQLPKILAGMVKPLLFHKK

[1] = molecular target: T2, 5-hydroxytryptamine receptor 1A (Homo sapiens, UniProt P08908); assay type: functional, cell-based
T2 sequence (P08908 whole entry): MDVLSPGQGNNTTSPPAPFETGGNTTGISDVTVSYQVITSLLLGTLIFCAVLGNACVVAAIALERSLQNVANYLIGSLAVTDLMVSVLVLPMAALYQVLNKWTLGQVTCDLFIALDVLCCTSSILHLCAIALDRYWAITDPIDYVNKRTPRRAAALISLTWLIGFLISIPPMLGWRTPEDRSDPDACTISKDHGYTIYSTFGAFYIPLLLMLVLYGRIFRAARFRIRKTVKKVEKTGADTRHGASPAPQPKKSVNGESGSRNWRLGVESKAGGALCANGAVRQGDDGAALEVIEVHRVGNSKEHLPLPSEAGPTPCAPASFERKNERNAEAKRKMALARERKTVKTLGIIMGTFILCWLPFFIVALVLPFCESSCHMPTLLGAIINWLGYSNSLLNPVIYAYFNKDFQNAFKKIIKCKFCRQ

[2] = molecular target: 5-hydroxytryptamine receptor 2B (Homo sapiens, UniProt P41595); assay type: functional, cell-based
5-hydroxytryptamine receptor 2B, sequence (P41595 whole entry): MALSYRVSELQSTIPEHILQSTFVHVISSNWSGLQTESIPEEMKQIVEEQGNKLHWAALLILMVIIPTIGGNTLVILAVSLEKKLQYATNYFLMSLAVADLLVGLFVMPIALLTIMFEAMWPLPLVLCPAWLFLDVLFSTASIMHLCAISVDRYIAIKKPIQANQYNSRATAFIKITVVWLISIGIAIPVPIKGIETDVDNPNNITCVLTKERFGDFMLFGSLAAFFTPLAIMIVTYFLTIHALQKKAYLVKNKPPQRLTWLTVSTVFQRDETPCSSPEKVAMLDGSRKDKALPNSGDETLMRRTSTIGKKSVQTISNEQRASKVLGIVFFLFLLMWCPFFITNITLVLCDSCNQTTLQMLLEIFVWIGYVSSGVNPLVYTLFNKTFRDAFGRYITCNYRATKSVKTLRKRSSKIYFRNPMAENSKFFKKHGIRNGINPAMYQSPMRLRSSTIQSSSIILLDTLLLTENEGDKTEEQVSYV

[3] = molecular target: T3, 5-hydroxytryptamine receptor 3A (Homo sapiens, UniProt P46098); assay type: functional
T3 sequence (P46098 whole entry): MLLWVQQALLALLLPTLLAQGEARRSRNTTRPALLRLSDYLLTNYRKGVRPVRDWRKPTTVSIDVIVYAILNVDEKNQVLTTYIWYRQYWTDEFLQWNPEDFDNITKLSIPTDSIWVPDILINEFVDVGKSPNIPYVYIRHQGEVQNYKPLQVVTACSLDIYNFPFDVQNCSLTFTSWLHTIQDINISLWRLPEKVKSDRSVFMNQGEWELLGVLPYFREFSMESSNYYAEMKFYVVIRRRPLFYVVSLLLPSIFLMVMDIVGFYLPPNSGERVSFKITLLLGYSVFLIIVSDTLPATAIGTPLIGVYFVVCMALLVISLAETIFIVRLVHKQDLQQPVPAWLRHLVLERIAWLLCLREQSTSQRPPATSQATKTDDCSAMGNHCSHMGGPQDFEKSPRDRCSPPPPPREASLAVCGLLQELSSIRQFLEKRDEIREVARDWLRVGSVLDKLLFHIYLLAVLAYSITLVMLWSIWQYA

Cannabinoid receptor 1 = Cannabinoid receptor 1 (Homo sapiens, UniProt P21554); assay type: functional, cell-based
Cannabinoid receptor 1, sequence (P21554 whole entry): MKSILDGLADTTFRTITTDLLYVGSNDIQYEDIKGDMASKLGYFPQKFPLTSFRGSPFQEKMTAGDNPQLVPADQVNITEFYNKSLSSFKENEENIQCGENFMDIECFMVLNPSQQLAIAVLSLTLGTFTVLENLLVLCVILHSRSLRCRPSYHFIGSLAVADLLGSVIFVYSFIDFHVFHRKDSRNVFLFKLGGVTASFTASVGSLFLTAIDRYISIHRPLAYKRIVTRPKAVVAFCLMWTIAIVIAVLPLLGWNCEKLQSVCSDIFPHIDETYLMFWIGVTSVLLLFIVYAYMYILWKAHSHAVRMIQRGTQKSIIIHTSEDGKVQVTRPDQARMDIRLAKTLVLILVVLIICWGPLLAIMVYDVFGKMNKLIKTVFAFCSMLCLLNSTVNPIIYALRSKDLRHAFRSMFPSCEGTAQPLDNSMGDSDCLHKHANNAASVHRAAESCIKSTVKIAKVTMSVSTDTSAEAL

Histamine H2 receptor = Histamine H2 receptor (Homo sapiens, UniProt P25021); assay type: functional, cell-based
Histamine H2 receptor, sequence (P25021 whole entry): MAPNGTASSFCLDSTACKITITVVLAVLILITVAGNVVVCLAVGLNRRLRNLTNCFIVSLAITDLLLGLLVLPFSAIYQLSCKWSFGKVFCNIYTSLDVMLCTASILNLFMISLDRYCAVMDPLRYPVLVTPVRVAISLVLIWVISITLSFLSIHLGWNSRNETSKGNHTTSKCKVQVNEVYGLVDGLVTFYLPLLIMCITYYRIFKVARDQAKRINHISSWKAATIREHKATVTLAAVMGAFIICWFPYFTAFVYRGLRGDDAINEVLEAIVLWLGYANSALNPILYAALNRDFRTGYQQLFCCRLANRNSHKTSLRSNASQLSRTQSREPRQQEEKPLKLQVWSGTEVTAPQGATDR

[4] = molecular target: Glutamate receptor ionotropic, NMDA 1 (Rattus norvegicus, UniProt P35439)
[5] = molecular target: Neuronal acetylcholine receptor subunit alpha-4 (Homo sapiens, UniProt P43681)
Neuronal acetylcholine receptor subunit alpha-4, sequence (P43681 whole entry): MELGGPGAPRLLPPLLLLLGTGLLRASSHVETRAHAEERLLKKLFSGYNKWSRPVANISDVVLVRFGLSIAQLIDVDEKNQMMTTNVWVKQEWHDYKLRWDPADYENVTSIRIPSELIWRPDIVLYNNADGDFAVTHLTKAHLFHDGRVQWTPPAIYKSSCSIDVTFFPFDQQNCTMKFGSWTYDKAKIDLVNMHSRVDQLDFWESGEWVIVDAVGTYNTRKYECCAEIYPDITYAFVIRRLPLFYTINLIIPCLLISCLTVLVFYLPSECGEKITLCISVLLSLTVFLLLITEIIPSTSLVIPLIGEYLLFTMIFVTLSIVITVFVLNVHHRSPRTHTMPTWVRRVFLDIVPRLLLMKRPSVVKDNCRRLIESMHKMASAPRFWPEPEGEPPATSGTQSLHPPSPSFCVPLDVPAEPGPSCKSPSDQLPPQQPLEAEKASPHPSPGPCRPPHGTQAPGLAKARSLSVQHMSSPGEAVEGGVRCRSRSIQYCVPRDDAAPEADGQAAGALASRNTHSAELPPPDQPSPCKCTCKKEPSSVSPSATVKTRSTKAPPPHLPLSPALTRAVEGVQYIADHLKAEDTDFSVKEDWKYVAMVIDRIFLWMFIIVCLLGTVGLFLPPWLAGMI

[6] = molecular target: T4, Type-1 angiotensin II receptor (Homo sapiens, UniProt P30556)
T4 sequence (P30556 whole entry): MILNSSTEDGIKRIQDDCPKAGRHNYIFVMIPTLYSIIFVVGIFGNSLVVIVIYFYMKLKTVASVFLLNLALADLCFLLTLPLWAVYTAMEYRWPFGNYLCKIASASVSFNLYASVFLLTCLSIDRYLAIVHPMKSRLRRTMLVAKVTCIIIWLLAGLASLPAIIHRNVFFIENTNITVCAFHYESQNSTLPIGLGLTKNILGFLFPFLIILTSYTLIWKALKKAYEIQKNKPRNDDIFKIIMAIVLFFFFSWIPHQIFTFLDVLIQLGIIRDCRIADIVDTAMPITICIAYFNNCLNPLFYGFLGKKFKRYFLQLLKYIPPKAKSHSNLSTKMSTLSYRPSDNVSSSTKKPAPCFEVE

[7] = molecular target: T5, Alpha-1A adrenergic receptor (Homo sapiens, UniProt P35348)
T5 sequence (P35348 whole entry): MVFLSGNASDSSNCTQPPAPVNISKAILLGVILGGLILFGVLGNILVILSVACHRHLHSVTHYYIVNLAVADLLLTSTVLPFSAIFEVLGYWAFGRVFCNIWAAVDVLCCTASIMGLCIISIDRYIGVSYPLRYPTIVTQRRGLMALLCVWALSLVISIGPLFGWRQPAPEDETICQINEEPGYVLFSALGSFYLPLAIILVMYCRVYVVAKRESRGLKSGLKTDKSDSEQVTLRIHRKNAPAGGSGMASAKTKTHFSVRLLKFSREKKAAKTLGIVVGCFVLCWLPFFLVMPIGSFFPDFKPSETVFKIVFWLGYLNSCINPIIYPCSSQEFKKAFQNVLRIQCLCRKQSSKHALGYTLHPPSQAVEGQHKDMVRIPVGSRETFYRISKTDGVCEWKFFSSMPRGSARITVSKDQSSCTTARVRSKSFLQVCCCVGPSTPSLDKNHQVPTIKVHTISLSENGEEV
Note: assay procedure not described here.

SMILES | AC50 (Progesterone receptor) [µM] | other results
Cc1cc2c(cc1S(N)(=O)=O)S(=O)(=O)CCC2 | > 30 | –
C[C@H](N[C@@H](CCc1ccccc1)C(=O)O)C(=O)N1Cc2ccccc2C[C@H]1C(=O)O | > 30 | –
O=C(O)[C@@H]1C[C@@H](O)CN1 | > 30 | –
CC1(C)S[C@@H]2[C@H](/N=C/N3CCCCCC3)C(=O)N2[C@H]1C(=O)O [AMDINOCILLIN] | > 30 | –
CC(=O)[C@]1(N)Cc2c(O)c3c(c(O)c2[C@@H](O[C@H]2C[C@H](O)[C@H](O)CO2)C1)C(=O)c1ccccc1C3=O [AMRUBICIN] | > 30 | –
NC(=O)[C@@H]1CC[C@@H]2CN1C(=O)N2OS(=O)(=O)O [AVIBACTAM] | > 30 | –
CC(=O)OC[C@H]1O[C@@H](n2ncc(=O)[nH]c2=O)[C@H](OC(C)=O)[C@@H]1OC(C)=O [AZARIBINE] | > 30 | –
CC(C)(C)NC(=O)N[C@H](C(=O)N1C[C@H]2[C@@H]([C@H]1C(=O)NC(CC1CCC1)C(=O)C(N)=O)C2(C)C)C(C)(C)C (some centres not stated) [BOCEPREVIR] | > 30 | –
NC[C@H]1CC[C@H](C(=O)Oc2ccc(CCC(=O)O)cc2)CC1 [CETRAXATE] | > 30 | AC50 [1]: > 30 µM; AC50 [2]: > 30 µM; AC50 [3]: > 30 µM; AC50 (Cannabinoid receptor 1): > 30 µM; AC50 (Histamine H2 receptor): > 30 µM; AC50 [4]: > 30 µM
C[C@H](CCC(=O)O)[C@H]1CC[C@H]2[C@@H]3[C@H](O)C[C@@H]4C[C@H](O)CC[C@]4(C)[C@H]3C[C@H](O)[C@]12C [CHOLIC ACID] | > 30 | –
Cc1ncc2c(c1O)COC2c1ccc(Cl)cc1 (configuration not stated) [CICLETANINE] | > 30 | –
Cc1cn([C@H]2O[C@@H](CO)[C@H](O)[C@H]2F)c(=O)[nH]c1=O [CLEVUDINE] | > 30 | –
N#Cc1ccc(Oc2ccc3c(c2)COB3O)cc1 [CRISABOROLE] | > 30 | –
CC(=O)O[C@]1(C(C)=O)CC[C@H]2[C@@H]3C=C(Cl)C4=CC(=O)[C@@H]5C[C@@H]5[C@]4(C)[C@H]3CC[C@@]21C [CYPROTERONE ACETATE] | – | AC50 [5]: > 10 µM; AC50 [6]: > 30 µM; AC50 [3]: > 30 µM; AC50 [7]: > 10 µM; AC50 [4]: > 10 µM
CC(=O)O[C@H]1Cc2ccccc2N(C(N)=O)c2ccccc21 [ESLICARBAZEPINE ACETATE] | > 30 | –
Cc1ccc(S(=O)(=O)NC(=O)NC2CCCCC2)cc1 [GLYCYCLAMIDE] | > 30 | –
CN1CCCN(C(c2ccccc2)c2ccc(Cl)cc2)CC1 (configuration not stated) [HOMOCHLORCYCLIZINE] | > 30 | –
CC(=O)OCC(=O)[C@@]1(O)CC[C@H]2[C@@H]3CCC4=CC(=O)CC[C@]4(C)[C@H]3[C@@H](O)C[C@@]21C [HYDROCORTISONE ACETATE] | 7.67 | –
CC(COc1ccccc1)NC(C)C(O)c1ccc(O)cc1 (configuration not stated) [ISOXSUPRINE] | > 30 | –
O=C(CCC/C=C\C[C@@H]1[C@@H](CC[C@@H](O)CCc2ccccc2)[C@H](O)C[C@@H]1O)OCCCCO[N+](=O)[O-] [LATANOPROSTENE BUNOD] | > 30 | –

SMILES | AC50 (Progesterone receptor) [µM] | other results
Cc1oc(=O)oc1COC(=O)[C@@H]1N2C(=O)[C@@H](NC(=O)[C@H](N)c3ccccc3)[C@H]2SC1(C)C [LENAMPICILLIN] | > 30 | –
COc1ccc(OC)c(C(O)C(C)N)c1 (configuration not stated) [METHOXAMINE] | > 30 | –
CC1(CCN2CCCCC2)C(=O)CCc2ccccc21 (configuration not stated) [NEPINALONE] | > 30 | –
COC(=O)C[C@](O)(CCCC(C)(C)O)C(=O)O[C@@H]1C(OC)=C[C@]23CCCN2CCc2cc4c(cc2[C@H]13)OCO4 [OMACETAXINE MEPESUCCINATE] | > 30 | –
COc1cccc(C(=O)CCN[C@@H](C)[C@H](O)c2ccccc2)c1 [OXYFEDRINE] | > 30 | –
CC[N+](C)(CC)CCOC(=O)C(O)(c1ccccc1)C1CCCCC1 (configuration not stated) [OXYPHENONIUM] | > 30 | –
C[C@@H]1C[C@H]2[C@@H]3C[C@H](F)C4=CC(=O)C=C[C@]4(C)[C@H]3[C@@H](O)C[C@]2(C)[C@@]1(O)C(=O)CO [PARAMETHASONE] | 5.1 | –
CCC[C@H](N[C@@H](C)C(=O)N1[C@H](C(=O)O)C[C@@H]2CCCC[C@@H]21)C(=O)OCC [PERINDOPRIL] | > 30 | –
NNCCc1ccccc1 [PHENELZINE] | > 30 | –
N[C@@H](Cc1ccccc1)C(=O)O [PHENYLALANINE] | > 30 | –
CCCn1cnc2c1c(=O)n(CCCCC(C)=O)c(=O)n2C [PROPENTOFYLLINE] | > 30 | –
COC(=O)[C@H]1[C@H]2C[C@@H]3c4[nH]c5cc(OC)ccc5c4CCN3C[C@H]2C[C@@H](OC(=O)c2cc(OC)c(OC)c(OC)c2)[C@@H]1OC [RESERPINE] | > 30 | AC50 [1]: > 10 µM; AC50 [2]: > 10 µM; AC50 [5]: > 10 µM; AC50 [6]: > 10 µM; AC50 [3]: > 30 µM; AC50 (Histamine H2 receptor): > 30 µM; AC50 [4]: > 10 µM
Clc1ccc(C(Cn2ccnc2)OCc2csc3c(Cl)cccc23)c(Cl)c1 (configuration not stated) [SERTACONAZOLE] | 0.831 | –
CC(OCCN1CCCCCC1)(c1ccccc1)c1ccc(Cl)cc1 (configuration not stated) [SETASTINE] | > 30 | –
COc1cc(C)c2c(Oc3cccc(C(F)(F)F)c3)c(OC)cc(NC(C)CCCN)c2n1 (configuration not stated) [TAFENOQUINE] | 4.23 | –
O=S1(=O)CCN(CN2CCS(=O)(=O)NC2)CN1 [TAUROLIDINE] | > 30 | AC50 [5]: > 30 µM; AC50 [3]: > 30 µM; AC50 (Cannabinoid receptor 1): > 30 µM; AC50 (Histamine H2 receptor): > 30 µM; AC50 [4]: > 30 µM
CCCSc1nc(N[C@@H]2C[C@H]2c2ccc(F)c(F)c2)c2nnn([C@@H]3C[C@H](OCCO)[C@@H](O)[C@H]3O)c2n1 [TICAGRELOR] | 7.6 | –
c1ccc2c(SC3=NCCN3)c[nH]c2c1 [TINAZOLINE] | 24 | –
Cc1ccc(C(=O)C(C)CN2CCCCC2)cc1 (configuration not stated) [TOLPERISONE] | > 30 | –
COc1ccc2c(C(=S)N(C)CC(=O)O)cccc2c1C(F)(F)F [TOLRESTAT] | > 30 | –

— ChEMBL document CHEMBL5291721, “A preclinical secondary pharmacology resource illuminates target-adverse drug reaction associations of marketed drugs” (Nat Commun, 2023)
